# Results taken from patent EP3154958B1, “PHOSPHATIDYLINOSITOL 3-KINASE INHIBITORS” (Gilead Sciences, Inc., priority 2014, dated 2015).
# Tests used:
# Assay type in all cases: biochemical
# PI3Kδ = target: T1, PI3Kδ (Homo sapiens, UniProt O00329); experiment: TR-FRET enzymatic activity assay, PI3Kδ; conditions: recombinant heterodimeric PI3Kδ 25-50 pM, 2× Km ATP, 30 minutes at 25°C
# T1 construct: made in house
# Protocol: (§1) The compounds of formula (I) were characterized for their enzymatic activity against the PI3K isoforms. The activities were measured using a time-resolved fluorescence resonance energy transfer (TR-FRET) assay.
# PI3Kγ = target: T2, PI3Kγ (Homo sapiens, UniProt P48736); experiment: TR-FRET enzymatic activity assay, PI3Kγ; conditions: recombinant heterodimeric PI3Kγ 2 nM, 2× Km ATP, 30 minutes at 25°C
# T2 construct: made in house
# Protocol: as §1
# PI3Kβ = target: T3, PI3Kβ (Homo sapiens, UniProt P42338); experiment: TR-FRET enzymatic activity assay, PI3Kβ; conditions: recombinant heterodimeric PI3Kβ 25-50 pM, 2× Km ATP, 30 minutes at 25°C
# T3 construct: made in house
# Protocol: as §1
# T1 sequence (O00329 whole entry): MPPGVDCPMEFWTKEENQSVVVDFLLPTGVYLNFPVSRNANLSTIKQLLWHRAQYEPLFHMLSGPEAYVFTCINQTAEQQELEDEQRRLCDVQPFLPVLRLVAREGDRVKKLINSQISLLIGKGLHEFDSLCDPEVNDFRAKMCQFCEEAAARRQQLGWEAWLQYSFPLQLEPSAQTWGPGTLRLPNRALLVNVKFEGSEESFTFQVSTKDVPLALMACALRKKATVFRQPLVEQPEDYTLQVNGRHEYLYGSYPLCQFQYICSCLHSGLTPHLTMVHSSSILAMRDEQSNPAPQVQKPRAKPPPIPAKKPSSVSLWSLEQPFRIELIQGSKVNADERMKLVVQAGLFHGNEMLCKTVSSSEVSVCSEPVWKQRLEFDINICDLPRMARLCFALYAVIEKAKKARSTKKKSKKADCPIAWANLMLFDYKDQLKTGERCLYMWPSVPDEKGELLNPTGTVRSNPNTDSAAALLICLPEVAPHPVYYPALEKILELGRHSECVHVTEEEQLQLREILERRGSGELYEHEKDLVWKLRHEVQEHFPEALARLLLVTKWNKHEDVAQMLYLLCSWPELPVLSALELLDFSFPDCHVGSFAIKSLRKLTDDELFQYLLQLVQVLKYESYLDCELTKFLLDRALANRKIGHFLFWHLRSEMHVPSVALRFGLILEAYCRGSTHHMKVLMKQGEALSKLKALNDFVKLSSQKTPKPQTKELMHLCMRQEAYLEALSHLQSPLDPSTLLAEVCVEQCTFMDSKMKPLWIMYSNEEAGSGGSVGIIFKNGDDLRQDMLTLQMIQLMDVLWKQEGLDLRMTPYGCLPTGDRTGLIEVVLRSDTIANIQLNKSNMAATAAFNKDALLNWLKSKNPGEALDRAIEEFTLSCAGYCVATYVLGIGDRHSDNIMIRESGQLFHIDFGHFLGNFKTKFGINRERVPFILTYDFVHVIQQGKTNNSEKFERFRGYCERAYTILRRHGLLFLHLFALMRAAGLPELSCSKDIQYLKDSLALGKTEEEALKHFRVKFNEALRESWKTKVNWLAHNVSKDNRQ
# T1 sequence (P27986 whole entry partner): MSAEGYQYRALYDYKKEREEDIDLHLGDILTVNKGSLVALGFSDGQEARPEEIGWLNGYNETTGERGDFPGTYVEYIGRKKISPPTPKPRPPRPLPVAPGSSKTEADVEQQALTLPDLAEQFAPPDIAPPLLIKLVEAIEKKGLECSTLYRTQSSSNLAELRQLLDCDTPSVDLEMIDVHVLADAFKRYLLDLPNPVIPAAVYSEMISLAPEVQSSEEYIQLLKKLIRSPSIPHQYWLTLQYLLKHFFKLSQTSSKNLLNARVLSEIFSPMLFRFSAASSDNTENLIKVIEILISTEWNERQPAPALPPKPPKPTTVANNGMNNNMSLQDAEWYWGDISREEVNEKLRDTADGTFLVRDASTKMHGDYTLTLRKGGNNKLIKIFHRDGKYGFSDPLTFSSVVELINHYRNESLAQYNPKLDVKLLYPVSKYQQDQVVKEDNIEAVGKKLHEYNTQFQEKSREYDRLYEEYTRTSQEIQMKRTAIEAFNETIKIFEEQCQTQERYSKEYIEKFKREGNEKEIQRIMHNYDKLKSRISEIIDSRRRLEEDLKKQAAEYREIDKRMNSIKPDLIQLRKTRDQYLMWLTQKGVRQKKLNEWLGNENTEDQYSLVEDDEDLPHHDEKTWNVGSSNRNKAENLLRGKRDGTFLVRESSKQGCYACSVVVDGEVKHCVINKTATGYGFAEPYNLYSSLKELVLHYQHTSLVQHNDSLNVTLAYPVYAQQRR
# T3 sequence (P42338 whole entry): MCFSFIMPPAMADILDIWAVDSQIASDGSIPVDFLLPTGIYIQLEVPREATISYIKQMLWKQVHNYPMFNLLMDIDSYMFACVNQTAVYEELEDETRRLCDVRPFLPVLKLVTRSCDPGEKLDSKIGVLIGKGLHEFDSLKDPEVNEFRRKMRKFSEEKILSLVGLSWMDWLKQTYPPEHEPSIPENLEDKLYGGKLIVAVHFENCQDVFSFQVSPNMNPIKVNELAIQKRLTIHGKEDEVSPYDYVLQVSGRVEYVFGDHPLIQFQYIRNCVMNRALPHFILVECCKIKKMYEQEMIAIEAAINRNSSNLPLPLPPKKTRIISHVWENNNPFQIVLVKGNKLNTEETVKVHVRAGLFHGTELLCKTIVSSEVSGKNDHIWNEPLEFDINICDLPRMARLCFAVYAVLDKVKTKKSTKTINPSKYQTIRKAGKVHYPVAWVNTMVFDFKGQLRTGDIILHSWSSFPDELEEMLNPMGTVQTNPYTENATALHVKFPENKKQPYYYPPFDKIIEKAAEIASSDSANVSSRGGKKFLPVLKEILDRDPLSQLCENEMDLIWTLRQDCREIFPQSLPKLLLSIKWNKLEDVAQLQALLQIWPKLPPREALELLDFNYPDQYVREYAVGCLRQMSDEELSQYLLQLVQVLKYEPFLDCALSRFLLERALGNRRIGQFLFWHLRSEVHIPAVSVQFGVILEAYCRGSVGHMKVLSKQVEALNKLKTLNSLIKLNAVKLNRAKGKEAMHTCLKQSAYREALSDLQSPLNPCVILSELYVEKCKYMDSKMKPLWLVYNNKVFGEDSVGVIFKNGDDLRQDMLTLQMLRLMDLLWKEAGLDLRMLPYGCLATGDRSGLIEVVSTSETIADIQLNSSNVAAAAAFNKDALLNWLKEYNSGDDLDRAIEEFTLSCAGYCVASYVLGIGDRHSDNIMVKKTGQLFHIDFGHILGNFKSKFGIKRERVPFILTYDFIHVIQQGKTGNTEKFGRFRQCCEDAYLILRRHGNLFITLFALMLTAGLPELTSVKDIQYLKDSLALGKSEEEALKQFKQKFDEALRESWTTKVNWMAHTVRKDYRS
# T3 sequence (P27986 whole entry partner): as the sequence (P27986 whole entry partner) above
# T2 sequence (P48736 whole entry): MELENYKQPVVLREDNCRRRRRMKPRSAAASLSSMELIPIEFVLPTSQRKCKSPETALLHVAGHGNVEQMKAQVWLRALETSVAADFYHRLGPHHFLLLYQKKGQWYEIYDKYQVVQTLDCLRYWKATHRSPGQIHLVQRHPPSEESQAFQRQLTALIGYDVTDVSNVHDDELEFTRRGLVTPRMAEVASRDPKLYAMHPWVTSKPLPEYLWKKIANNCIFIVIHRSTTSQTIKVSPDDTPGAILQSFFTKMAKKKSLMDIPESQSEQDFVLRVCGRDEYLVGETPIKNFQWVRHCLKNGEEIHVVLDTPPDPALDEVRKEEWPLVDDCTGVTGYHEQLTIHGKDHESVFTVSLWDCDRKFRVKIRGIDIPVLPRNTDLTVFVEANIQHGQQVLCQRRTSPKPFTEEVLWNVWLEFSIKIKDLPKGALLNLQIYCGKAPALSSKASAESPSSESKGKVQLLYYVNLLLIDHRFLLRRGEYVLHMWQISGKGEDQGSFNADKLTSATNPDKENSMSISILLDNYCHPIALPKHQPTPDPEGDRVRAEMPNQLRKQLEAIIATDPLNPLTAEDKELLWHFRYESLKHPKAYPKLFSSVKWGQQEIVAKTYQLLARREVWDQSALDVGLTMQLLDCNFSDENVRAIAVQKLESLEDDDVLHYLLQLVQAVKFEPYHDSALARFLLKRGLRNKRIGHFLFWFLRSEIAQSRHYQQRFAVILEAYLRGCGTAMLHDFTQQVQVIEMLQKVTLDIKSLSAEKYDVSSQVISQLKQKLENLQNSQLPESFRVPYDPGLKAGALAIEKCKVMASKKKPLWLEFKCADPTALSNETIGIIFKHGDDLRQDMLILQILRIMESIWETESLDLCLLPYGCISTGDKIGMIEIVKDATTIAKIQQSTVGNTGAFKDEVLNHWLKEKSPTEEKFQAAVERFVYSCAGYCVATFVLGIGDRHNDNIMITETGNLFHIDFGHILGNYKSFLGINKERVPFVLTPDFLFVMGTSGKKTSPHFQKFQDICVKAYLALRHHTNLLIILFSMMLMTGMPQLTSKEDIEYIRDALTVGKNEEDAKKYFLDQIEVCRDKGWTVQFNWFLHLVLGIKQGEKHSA
# T2 sequence (Q8WYR1 whole entry partner): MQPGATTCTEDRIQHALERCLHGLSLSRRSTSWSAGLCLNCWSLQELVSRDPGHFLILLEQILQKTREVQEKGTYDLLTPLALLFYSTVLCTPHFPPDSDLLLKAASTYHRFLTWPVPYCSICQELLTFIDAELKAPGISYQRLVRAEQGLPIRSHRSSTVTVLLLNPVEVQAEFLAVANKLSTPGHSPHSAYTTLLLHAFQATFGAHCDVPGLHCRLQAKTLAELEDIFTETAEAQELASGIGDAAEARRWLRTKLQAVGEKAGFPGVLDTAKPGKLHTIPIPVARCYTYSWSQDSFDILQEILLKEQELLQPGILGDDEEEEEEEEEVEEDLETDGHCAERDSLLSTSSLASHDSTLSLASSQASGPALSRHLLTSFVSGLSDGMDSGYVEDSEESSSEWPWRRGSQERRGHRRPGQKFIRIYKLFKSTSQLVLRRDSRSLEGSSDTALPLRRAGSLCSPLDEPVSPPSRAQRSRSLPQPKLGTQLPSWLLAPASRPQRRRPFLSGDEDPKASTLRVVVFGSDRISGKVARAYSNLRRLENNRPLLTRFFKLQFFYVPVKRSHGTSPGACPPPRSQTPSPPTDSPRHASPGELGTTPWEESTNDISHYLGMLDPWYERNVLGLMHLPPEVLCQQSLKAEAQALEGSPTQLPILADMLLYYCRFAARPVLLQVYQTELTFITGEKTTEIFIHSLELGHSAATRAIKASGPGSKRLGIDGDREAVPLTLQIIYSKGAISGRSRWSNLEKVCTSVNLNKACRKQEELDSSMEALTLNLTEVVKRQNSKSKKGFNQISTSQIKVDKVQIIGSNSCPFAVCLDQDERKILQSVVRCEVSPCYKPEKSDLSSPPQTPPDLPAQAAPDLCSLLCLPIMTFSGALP
Structure (SMILES),IC50 (PI3Kδ),IC50 (PI3Kγ),IC50 (PI3Kβ)
"C[C@H](Nc1nc(N)nc(N)c1C#N)c1nc2cccc(Cl)c2c(=O)n1C1C[C@H]2CC[C@@H](C1)N2C (stereo partly drawn) [Compound 4, 2,4-diamino-6-(((1S)-1-(5-chloro-3-((1R,5S)-8-methyl-8-azabicyclo[3.2.1]octan-3-yl)-4-oxo-3,4-dihydroquinazolin-2-yl)ethyl)amino)pyrimidine-5-carbonitrile]",82 nM,> 10000 nM,290 nM
"C[C@H](Nc1ncnc(N)c1C#N)c1nc2cccc(Cl)c2c(=O)n1N1CCCNCC1 [Compound 66, (S)-4-amino-6-((1-(5-chloro-3-(1,4-diazepan-1-yl)-4-oxo-3,4-dihydroquinazolin-2-yl)ethyl)amino)pyrimidine-5-carbonitrile]",13 nM,> 10000 nM,370 nM
"C[C@H](NC(=O)c1nc(Cl)cnc1N)c1nc2cccc(Cl)c2c(=O)n1N1CCNCC1 [Compound 32, (S)-3-amino-6-chloro-N-(1-(5-chloro-4-oxo-3-(piperazin-1-yl)-3,4-dihydroquinazolin-2-yl)ethyl)pyrazine-2-carboxamide]",150 nM,> 10000 nM,32 nM
"C[C@H](Nc1ncnc(N)c1C#N)c1nc2cccc(Cl)c2c(=O)n1C1CCN(C)CC1 [Compound 6, (S)-4-amino-6-((1-(5-chloro-3-(1-methylpiperidin-4-yl)-4-oxo-3,4-dihydroquinazolin-2-yl)ethyl)amino)pyrimidine-5-carbonitrile]",68 nM,> 10000 nM,460 nM
"O=c1c2c(F)ccc(F)c2nc([C@@H](Nc2ncnn3ccnc23)C2CC2)n1N1CCNCC1 [Compound 41, (S)-2-(cyclopropyl(imidazo[2,1-f][1,2,4]triazin-4-ylamino)methyl)-5,8-difluoro-3 - (piperazin-1-yl)quinazolin-4(3H)-one]",24 nM,> 10000 nM,210 nM
"N#Cc1c(N)nc(N)nc1N1CCC[C@@H]1c1nc2cccc(F)c2c(=O)n1N1CCN(Cc2ccccc2)CC1 (stereo in doubt) [Compound 124, (R)-2,4-diamino-6-(2-(3-(4-benzylpiperazin-1-yl)-5-fluoro-4-oxo-3,4-dihydroquinazolin-2-yl)pyrrolidin-1-yl)pyrimidine-5-carbonitrile]",390 nM,> 10000 nM,1300 nM
"C[C@H](Nc1nc(N)nc(N)c1C#N)c1nc2cccc(Cl)c2c(=O)n1C1CCN(CC(F)(F)F)CC1 [Compound 100, (S)-2,4-diamino-6-((1-(5-chloro-4-oxo-3-(1-(2,2,2-trifluoroethyl)piperidin-4-yl)-3,4-dihydroquinazolin-2-yl)ethyl)amino)pyrimidine-5-carbonitrile]",15 nM,1300 nM,970 nM
"C[C@H](Nc1nc(N)nc(N)c1C#N)c1nc2cccc(Cl)c2c(=O)n1C1CCN(CC(F)(F)F)C1 (stereo partly drawn) [Compound 119, 2,4-diamino-6-(((1S)-1-(5-chloro-4-oxo-3-(1-(2,2,2-trifluoroethyl)pyrrolidin-3-yl)-3,4-dihydroquinazolin-2-yl)ethyl)amino)pyrimidine-5-carbonitrile]",14 nM,2900 nM,360 nM
"CC(C)N1CCN(n2c([C@H](C)Nc3nc(N)nc(N)c3C#N)nc3cccc(Cl)c3c2=O)CC1 [Compound 88, (S)-2,4-diamino-6-((1-(5-chloro-3-(4-isopropylpiperazin-1-yl)-4-oxo-3,4-dihydroquinazolin-2-yl)ethyl)amino)pyrimidine-5-carbonitrile]",54 nM,5800 nM,120 nM
"Cc1nc(N)nc(N[C@@H](C)c2nc3cccc(Cl)c3c(=O)n2C2CCN(CC(F)(F)F)CC2)c1C#N [Compound 106, (S)-2-amino-4-((1-(5-chloro-4-oxo-3-(1-(2,2,2-trifluoroethyl)piperidin-4-yl)-3,4-dihydroquinazolin-2-yl)ethyl)amino)-6-methylpyrimidine-5-carbonitrile]",11 nM,710 nM,260 nM
"C[C@H](Nc1nc(N)nc(N)c1C#N)c1nc2cccc(Cl)c2c(=O)n1N1CCN(CC(F)(F)F)CC1 [Compound 107, (S)-2,4-diamino-6-((1-(5-chloro-4-oxo-3-(4-(2,2,2-trifluoroethyl)piperazin-1-yl)-3,4-dihydroquinazolin-2-yl)ethyl)amino)pyrimidine-5-carbonitrile]",16 nM,630 nM,520 nM

# Compounds with a lower IC50 (PI3Kδ), results first:
IC50 (PI3Kδ),IC50 (PI3Kγ),IC50 (PI3Kβ),Structure (SMILES)
9 nM,> 10000 nM,94 nM,"C[C@H](Nc1ncnn2ccnc12)c1nc2cccc(Cl)c2c(=O)n1N1CCCNCC1 [Compound 64, (S)-5-chloro-3-(1,4-diazepan-1-yl)-2-(1-(imidazo[2,1-f][1,2,4]triazin-4-ylamino)ethyl)quinazolin-4(3H)-one]"
5 nM,> 10000 nM,3 nM,"CC[C@H](Nc1nc(N)nc(C)c1C#N)c1nc2cccc(Cl)c2c(=O)n1C1CCNCC1 [Compound 23, (S)-2-amino-4-((1-(5-chloro-4-oxo-3-(piperidin-4-yl)-3,4-dihydroquinazolin-2-yl)propyl)amino)-6-methylpyrimidine-5-carbonitrile]"
1 nM,1800 nM,2 nM,"CC[C@H](Nc1nc(N)nc(C)c1C#N)c1nc2cccc(Cl)c2c(=O)n1N1CCNCC1 [Compound 44, (S)-2-amino-4-((1-(5-chloro-4-oxo-3-(piperazin-1-yl)-3,4-dihydroquinazolin-2-yl)propyl)amino)-6-methylpyrimidine-5-carbonitrile]"
4 nM,5000 nM,120 nM,"C[C@H](Nc1nc(N)nc(N)c1C#N)c1nc2cccc(Cl)c2c(=O)n1N1CCC(N)CC1 [Compound 129, (S)-2,4-diamino-6-((1-(3-(4-aminopiperidin-1-yl)-5-chloro-4-oxo-3,4-dihydroquinazolin-2-yl)ethyl)amino)pyrimidine-5-carbonitrile]"
2 nM,> 10000 nM,62 nM,"C[C@H](Nc1nc(N)nc(N)c1C#N)c1nc2cccc(Cl)c2c(=O)n1[C@H]1CCCNCC1 [Compound 8, 2,4-diamino-6-(((S)-1-(3-((S)-azepan-4-yl)-5-chloro-4-oxo-3,4-dihydroquinazolin-2-yl)ethyl)amino)pyrimidine-5-carbonitrile]"
2 nM,> 10000 nM,32 nM,"C[C@H](Nc1ncnc(N)c1C#N)c1nc2cccc(Cl)c2c(=O)n1C1CCCNCC1 (stereo partly drawn) [Compound 84, 4-amino-6-(((1S)-1-(3-(azepan-4-yl)-5-chloro-4-oxo-3,4-dihydroquinazolin-2-yl)ethyl)amino)pyrimidine-5-carbonitrile]"
1 nM,3300 nM,3 nM,"N#Cc1c(N)nc(N)nc1N[C@H](c1nc2c(F)ccc(Cl)c2c(=O)n1N1CCNCC1)C1CC1 [Compound 48, (S)-2,4-diamino-6-(((5-chloro-8-fluoro-4-oxo-3-(piperazin-1-yl)-3,4-dihydroquinazolin-2-yl)(cyclopropyl)methyl)amino)pyrimidine-5-carbonitrile]"
8 nM,> 10000 nM,45 nM,"CC[C@H](Nc1ncnn2ccnc12)c1nc2cccc(Cl)c2c(=O)n1N1CCNCC1 [Compound 42, (S)-5-chloro-2-(1-(imidazo[2,1-f][1,2,4]triazin-4-ylamino)propyl)-3-(piperazin-1-yl)quinazolin-4(3H)-one]"
3 nM,2100 nM,1 nM,"CC[C@H](Nc1nc(N)nc(N)c1C#N)c1nc2cccc(Cl)c2c(=O)n1N1CCNCC1 [Compound 68, (S)-2,4-diamino-6-((1-(5-chloro-4-oxo-3-(piperazin-1-yl)-3,4-dihydroquinazolin-2-yl)propyl)amino)pyrimidine-5-carbonitrile]"
6 nM,> 10000 nM,450 nM,"C[C@H](Nc1ncnc(N)c1C#N)c1nc2cccc(Cl)c2c(=O)n1N1CCC(N)CC1 [Compound 131, (S)-4-amino-6-((1-(3-(4-aminopiperidin-1-yl)-5-chloro-4-oxo-3,4-dihydroquinazolin-2-yl)ethyl)amino)pyrimidine-5-carbonitrile]"
9 nM,8400 nM,820 nM,"C[C@H](Nc1ncnc(N)c1C#N)c1nc2cccc(Cl)c2c(=O)n1N1CCNC(C(F)(F)F)C1 (stereo partly drawn) [Compound 62, 4-amino-6-(((1S)-1-(5-chloro-4-oxo-3-(3-(trifluoromethyl)piperazin-1-yl)-3,4-dihydroquinazolin-2-yl)ethyl)amino)pyrimidine-5-carbonitrile]"
2 nM,> 10000 nM,19 nM,"C[C@H](Nc1ncnc2scnc12)c1nc2c(Cl)ccc(Cl)c2c(=O)n1N1CCNCC1 [Compound 49, (S)-5,8-dichloro-3-(piperazin-1-yl)-2-(1-(thiazolo[5,4-d]pyrimidin-7-ylamino)ethyl)quinazolin-4(3H)-one]"
8 nM,> 10000 nM,19 nM,"C[C@H](Nc1ncnc2cccnc12)c1nc2cccc(Cl)c2c(=O)n1N1CCNCC1 [Compound 73, (S)-5-chloro-3-(piperazin-1-yl)-2-(1-(pyrido[3,2-d]pyrimidin-4-ylamino)ethyl)quinazolin-4(3H)-one]"
2 nM,> 10000 nM,2 nM,"C[C@H](Nc1nc(N)nc(N)c1C#N)c1nc2cccc(Cl)c2c(=O)n1C1CCNCC1 [Compound 26, (S)-2,4-diamino-6-((1-(5-chloro-4-oxo-3-(piperidin-4-yl)-3,4-dihydroquinazolin-2-yl)ethyl)amino)pyrimidine-5-carbonitrile]"
3 nM,> 10000 nM,14 nM,"C[C@H](Nc1ncnc2scnc12)c1nc2cccc(Cl)c2c(=O)n1N1CCNCC1 [Compound 70, (S)-5-chloro-3-(piperazin-1-yl)-2-(1-(thiazolo[5,4-d]pyrimidin-7-ylamino)ethyl)quinazolin-4(3H)-one]"
